ChEMBL document CHEMBL3751728, “C5-substituted pyrido[2,3-d]pyrimidin-7-ones as highly specific kinase inhibitors targeting the clinical resistance-related EGFRT790Mmutant” (Medchemcomm, 2015)
Active and inactive are the calls of the source. No cut-off for these calls is given here.

Key:
[1] = target: T1, Epidermal growth factor receptor (Homo sapiens, UniProt P00533)
[2] = target: T1, Epidermal growth factor receptor; experiment: Inhibiton of wild type EGFR (unknown origin) using Poly (Glu4Tyr1) as substrate incubated for 1 hr by ELISA; assay type: single protein
[3] = species: Homo sapiens; experiment: Selectivity index, ratio of IC50 for wild type EGFR (unknown origin) to IC50 for EGFR L858R/T790M mutant (unknown origin)
[4] = target: T2, Epidermal growth factor receptor (Homo sapiens, UniProt P00533, L858R/T790M)
T2 sequence (P00533 25-1210 T790M/L858R limits assumed): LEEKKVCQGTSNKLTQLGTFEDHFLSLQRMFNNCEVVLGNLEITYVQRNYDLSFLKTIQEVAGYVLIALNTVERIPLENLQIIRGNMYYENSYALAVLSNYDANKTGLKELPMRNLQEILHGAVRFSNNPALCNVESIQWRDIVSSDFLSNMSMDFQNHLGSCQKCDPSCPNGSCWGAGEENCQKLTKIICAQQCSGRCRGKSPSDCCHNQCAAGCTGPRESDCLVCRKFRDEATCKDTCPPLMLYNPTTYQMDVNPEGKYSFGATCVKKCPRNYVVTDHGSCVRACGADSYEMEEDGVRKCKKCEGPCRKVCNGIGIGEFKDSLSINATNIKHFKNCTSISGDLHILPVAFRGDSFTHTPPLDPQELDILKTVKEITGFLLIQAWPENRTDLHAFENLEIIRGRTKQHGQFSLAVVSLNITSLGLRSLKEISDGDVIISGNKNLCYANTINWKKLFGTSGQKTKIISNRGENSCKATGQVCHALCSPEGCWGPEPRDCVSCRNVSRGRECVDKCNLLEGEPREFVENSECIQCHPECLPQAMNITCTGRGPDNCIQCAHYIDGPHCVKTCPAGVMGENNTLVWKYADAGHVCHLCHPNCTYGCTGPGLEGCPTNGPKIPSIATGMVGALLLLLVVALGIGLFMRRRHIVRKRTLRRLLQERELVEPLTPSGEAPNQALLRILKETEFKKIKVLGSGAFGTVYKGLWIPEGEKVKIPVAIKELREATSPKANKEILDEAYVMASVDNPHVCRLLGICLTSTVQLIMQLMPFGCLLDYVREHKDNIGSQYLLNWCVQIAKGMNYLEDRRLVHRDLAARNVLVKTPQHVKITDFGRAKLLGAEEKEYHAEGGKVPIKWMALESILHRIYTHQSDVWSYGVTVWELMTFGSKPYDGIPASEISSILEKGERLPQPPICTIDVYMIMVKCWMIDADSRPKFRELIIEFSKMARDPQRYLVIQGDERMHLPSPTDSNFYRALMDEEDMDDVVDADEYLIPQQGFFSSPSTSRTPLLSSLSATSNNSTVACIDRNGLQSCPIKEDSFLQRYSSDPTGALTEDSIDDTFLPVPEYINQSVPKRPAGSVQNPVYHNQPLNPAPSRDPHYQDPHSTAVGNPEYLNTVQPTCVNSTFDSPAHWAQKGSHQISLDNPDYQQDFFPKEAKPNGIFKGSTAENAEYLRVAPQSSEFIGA

[5] = target: T2, Epidermal growth factor receptor; assay type: protein assay
[6] = system: Epidermal growth factor receptor (Homo sapiens), P00533 [T790M]; conditions: H1975, 0.3 to 30 nM
Sequence of Epidermal growth factor receptor (Homo sapiens), P00533 [T790M] (P00533 whole entry T790M): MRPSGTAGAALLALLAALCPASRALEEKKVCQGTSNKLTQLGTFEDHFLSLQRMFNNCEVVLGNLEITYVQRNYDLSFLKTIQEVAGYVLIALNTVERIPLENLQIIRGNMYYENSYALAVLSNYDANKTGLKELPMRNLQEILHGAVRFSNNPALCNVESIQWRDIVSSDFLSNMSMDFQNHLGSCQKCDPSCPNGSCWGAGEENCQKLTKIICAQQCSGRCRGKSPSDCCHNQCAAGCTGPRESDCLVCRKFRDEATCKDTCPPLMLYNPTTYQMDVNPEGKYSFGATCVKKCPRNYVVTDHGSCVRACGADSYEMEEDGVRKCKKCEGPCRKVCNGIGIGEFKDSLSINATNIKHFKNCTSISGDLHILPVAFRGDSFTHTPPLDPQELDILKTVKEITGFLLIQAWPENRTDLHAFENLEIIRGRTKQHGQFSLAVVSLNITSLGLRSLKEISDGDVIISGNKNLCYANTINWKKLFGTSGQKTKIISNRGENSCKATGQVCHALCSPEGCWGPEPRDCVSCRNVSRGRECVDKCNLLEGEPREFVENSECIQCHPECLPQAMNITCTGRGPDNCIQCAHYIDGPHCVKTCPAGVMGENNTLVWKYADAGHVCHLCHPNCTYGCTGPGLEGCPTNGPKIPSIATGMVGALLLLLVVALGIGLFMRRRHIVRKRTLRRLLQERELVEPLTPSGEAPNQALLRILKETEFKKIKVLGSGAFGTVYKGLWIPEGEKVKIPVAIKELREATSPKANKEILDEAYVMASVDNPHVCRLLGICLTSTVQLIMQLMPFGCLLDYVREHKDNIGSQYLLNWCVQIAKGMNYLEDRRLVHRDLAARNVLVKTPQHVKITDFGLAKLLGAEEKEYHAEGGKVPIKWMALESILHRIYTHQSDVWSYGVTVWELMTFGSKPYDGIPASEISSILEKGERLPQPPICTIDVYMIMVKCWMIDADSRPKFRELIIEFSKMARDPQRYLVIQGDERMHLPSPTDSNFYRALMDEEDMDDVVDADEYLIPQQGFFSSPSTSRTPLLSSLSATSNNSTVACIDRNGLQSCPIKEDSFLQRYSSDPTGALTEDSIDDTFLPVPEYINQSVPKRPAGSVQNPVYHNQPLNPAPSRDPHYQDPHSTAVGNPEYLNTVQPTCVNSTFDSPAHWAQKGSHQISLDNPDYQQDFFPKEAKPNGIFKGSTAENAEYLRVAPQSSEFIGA

[7] = system: Epidermal growth factor receptor (Homo sapiens), P00533 [T790M]; conditions: H1975, 0.3 to 30 nM; remark: listed apart in the source
[8] = system: Epidermal growth factor receptor (Homo sapiens), P00533 [T790M]; conditions: H1975, 0.3 to 30 nM; remark: listed apart in the source
[9] = system: NCI-H1975; experiment: Selectivity index, ratio of IC50 for human A431 cells overexpressing wild type EGFR to IC50 for human NCI-H1975 cells harboring EGFR L858R/T790M mutant
[10] = species: Homo sapiens; experiment: Selectivity ratio of Kd for wild type human EGFR to Kd for human EGFR L858R/T790M mutant
[11] = system: Epidermal growth factor receptor (Homo sapiens), P00533 [L858R,T790M]; conditions: H1975, 1 uM
Sequence of Epidermal growth factor receptor (Homo sapiens), P00533 [L858R,T790M] (P00533 whole entry T790M/L858R, looked up): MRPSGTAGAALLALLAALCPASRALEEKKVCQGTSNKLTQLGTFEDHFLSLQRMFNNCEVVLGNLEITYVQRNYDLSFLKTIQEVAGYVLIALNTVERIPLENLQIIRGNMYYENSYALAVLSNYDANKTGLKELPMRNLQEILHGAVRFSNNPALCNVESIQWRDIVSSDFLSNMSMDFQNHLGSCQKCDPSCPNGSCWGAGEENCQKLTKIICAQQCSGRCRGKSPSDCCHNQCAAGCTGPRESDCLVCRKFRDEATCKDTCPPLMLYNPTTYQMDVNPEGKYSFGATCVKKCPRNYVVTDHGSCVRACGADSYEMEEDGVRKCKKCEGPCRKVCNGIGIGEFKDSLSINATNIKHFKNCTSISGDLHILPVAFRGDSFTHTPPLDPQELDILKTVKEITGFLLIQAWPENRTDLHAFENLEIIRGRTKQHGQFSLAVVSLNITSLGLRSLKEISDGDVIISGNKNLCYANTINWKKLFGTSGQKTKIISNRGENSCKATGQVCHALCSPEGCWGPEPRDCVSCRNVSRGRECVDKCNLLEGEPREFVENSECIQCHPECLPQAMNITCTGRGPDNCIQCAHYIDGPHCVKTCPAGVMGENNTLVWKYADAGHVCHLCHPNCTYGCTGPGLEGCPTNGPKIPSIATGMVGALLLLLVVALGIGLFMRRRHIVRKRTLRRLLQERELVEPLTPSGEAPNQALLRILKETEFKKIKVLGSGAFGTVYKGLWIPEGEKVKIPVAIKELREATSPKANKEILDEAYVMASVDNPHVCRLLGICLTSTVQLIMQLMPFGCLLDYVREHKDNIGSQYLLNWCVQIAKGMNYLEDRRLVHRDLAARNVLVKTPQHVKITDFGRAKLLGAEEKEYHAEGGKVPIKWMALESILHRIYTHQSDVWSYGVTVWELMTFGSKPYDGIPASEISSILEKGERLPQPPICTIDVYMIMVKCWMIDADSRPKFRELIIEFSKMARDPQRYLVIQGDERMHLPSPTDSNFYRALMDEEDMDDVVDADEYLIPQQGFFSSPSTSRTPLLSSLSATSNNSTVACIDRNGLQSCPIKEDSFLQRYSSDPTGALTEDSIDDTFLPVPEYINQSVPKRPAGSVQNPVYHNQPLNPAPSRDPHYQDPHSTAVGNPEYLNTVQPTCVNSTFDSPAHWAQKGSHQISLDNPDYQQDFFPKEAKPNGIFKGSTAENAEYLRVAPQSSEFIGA

[12] = system: NCI-H1975; experiment: Selectivity index, ratio of IC50 for human WI38 cells to IC50 for human NCI-H1975 cells harboring EGFR L858R/T790M mutant
[13] = system: Epidermal growth factor receptor (Homo sapiens), P00533 [T790M]; conditions: 100 nM
[14] = system: NCI-H1975; experiment: Effect on total AKT level in EGF-stimulated human NCI-H1975 cells expressing EGFR T790M mutant preincubated for 2 hrs followed by EGF stimulation measured after 15 mins by Western blot analysis; assay type: ADME, cell-based; conditions: nci-h1975, 0.25 h
[15] = target: T1, Epidermal growth factor receptor; experiment: Inhibition of EGF-stimulated wild type EGFR phosphorylation in human A431 cells at 100 nM preincubated for 2 hrs followed by EGF stimulation measured after 15 mins by Western blot analysis; assay type: cell-based; conditions: a-431, 0.25 h, 0.1 µM
[16] = target: T1, Epidermal growth factor receptor; experiment: Inhibition of EGF-stimulated wild type EGFR phosphorylation in human A431 cells assessed as suppression of ERK phosphorylation at 100 nM preincubated for 2 hrs followed by EGF stimulation measured after 15 mins by Western blot analysis; assay type: cell-based; conditions: a-431, 0.25 h, 0.1 µM
[17] = system: Epidermal growth factor receptor (Homo sapiens), P00533 [L858R,T790M]; conditions: 100 nM
[18] = system: NCI-H1975; experiment: Selectivity index, ratio of IC50 for human GES1 cells to IC50 for human NCI-H1975 cells harboring EGFR L858R/T790M mutant
[19] = system: NCI-H1975; experiment: Effect on total EGFR T790M mutant level in EGF-stimulated human NCI-H1975 cells preincubated for 2 hrs followed by EGF stimulation measured after 15 mins by Western blot analysis; assay type: ADME, cell-based; conditions: nci-h1975, 0.25 h
[20] = system: NCI-H1975; experiment: Selectivity index, ratio of IC50 for human MCF10A cells to IC50 for human NCI-H1975 cells harboring EGFR L858R/T790M mutant
[21] = system: A-431; experiment: Cytotoxicity against human A431 cells overexpressing wild type EGFR after 72 hrs by SRB assay; assay type: cell-based; conditions: A-431, 72 h
[22] = system: NCI-H1975; experiment: Effect on total ERK level in EGF-stimulated human NCI-H1975 cells expressing EGFR T790M mutant preincubated for 2 hrs followed by EGF stimulation measured after 15 mins by Western blot analysis; assay type: ADME, cell-based; conditions: nci-h1975, 0.25 h
[23] = system: NCI-H1975; experiment: Selectivity index, ratio of IC50 for human LO2 cells to IC50 for human NCI-H1975 cells harboring EGFR L858R/T790M mutant
[24] = target: T1, Epidermal growth factor receptor; experiment: Inhibition of EGF-stimulated wild type EGFR phosphorylation in human A431 cells assessed as suppression of AKT phosphorylation at 100 nM preincubated for 2 hrs followed by EGF stimulation measured after 15 mins by Western blot analysis; assay type: cell-based; conditions: a-431, 0.25 h, 0.1 µM
[25] = system: NCI-H1975; experiment: Cytotoxicity against human NCI-H1975 harboring EGFR L858R/T790M mutant after 72 hrs by SRB assay; assay type: functional, cell-based; conditions: NCI-H1975, 72 h

T1 sequence (P00533 whole entry): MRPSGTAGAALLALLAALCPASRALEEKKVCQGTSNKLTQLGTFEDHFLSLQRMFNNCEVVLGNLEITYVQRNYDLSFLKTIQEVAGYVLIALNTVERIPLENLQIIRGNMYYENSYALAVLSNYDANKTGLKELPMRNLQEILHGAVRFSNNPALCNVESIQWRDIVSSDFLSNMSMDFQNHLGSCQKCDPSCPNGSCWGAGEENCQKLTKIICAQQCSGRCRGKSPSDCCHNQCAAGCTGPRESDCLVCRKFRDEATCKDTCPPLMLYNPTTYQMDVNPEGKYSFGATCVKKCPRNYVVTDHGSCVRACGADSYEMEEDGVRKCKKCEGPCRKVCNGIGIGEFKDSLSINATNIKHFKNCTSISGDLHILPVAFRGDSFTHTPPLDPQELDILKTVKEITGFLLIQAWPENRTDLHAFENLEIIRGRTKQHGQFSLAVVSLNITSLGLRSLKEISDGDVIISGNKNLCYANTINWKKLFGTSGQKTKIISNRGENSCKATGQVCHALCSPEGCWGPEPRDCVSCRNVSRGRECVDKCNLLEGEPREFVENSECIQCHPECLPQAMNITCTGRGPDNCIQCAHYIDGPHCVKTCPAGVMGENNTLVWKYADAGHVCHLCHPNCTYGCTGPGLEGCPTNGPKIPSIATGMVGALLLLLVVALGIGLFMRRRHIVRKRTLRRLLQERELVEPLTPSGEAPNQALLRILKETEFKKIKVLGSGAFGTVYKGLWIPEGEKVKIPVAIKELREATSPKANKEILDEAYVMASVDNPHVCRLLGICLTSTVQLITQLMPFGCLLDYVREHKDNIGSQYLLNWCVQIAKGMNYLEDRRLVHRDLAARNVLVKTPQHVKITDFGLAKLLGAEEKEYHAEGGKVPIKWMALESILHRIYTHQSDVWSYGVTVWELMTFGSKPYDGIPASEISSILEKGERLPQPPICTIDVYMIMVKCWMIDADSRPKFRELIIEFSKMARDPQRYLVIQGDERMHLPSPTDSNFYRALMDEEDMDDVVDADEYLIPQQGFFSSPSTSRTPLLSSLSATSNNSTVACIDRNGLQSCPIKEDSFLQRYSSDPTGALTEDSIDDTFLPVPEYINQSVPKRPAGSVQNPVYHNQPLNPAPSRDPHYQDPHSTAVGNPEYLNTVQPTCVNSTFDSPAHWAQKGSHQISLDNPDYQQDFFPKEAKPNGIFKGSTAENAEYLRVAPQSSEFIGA

| Structure (SMILES) | Kd [1] | IC50 [2] | Kd [4] | IC50 [5] | further results |
| --- | --- | --- | --- | --- | --- |
| C=CC(=O)Nc1cccc(-n2c(=O)c(Cc3ccccc3)cc3cnc(Nc4ccc(N5CCN(C)CC5)cc4OC)nc32)c1 | 0.0012 µM | 0.001 µM | 0.0005 µM | 0.0005 µM | Ratio IC50 [3]: 2 |
| C=CC(=O)Nc1cccc(-n2c(=O)cc(CC)c3cnc(Nc4ccc(N5CCN(C)CC5)cc4OC)nc32)c1 | 0.14 µM | 0.114 µM | 0.0018 µM | 0.0067 µM |  |
| C=CC(=O)Nc1cccc(-n2c(=O)cc(N(C)C)c3cnc(Nc4ccc(N5CCN(C)CC5)cc4OC)nc32)c1 |  | 0.21 µM |  | 0.095 µM |  |
| C=CC(=O)Nc1cccc(-n2c(=O)c(C)cc3cnc(Nc4ccc(N5CCN(C)CC5)cc4OC)nc32)c1 | 0.0062 µM | 0.016 µM | 0.00088 µM | 0.0013 µM |  |
| C=CC(=O)Nc1cccc(-n2c(=O)cc(-c3ccccc3)c3cnc(Nc4ccc(N5CCN(C)CC5)cc4OC)nc32)c1 |  | 0.097 µM |  | 0.021 µM |  |
| C=CC(=O)Nc1cccc(-n2c(=O)cc(-c3ccc(-c4ccccc4)cc3)c3cnc(Nc4ccc(N5CCN(C)CC5)cc4OC)nc32)c1 |  | > 1 µM |  | > 1 µM |  |
| C=CC(=O)Nc1cccc(-n2c(=O)cc(C)c3cnc(Nc4ccc(N5CCN(C)CC5)cc4OCC)nc32)c1 | 0.35 µM | 0.17 µM | 0.0012 µM | 0.011 µM |  |
| C=CC(=O)Nc1cccc(-n2c(=O)c(-c3ccccc3)cc3cnc(Nc4ccc(N5CCN(C)CC5)cc4OC)nc32)c1 | 0.0025 µM | 0.0078 µM | 0.0005 µM | 0.0002 µM |  |
| C=CC(=O)Nc1cccc(-n2c(=O)cc(C)c3cnc(Nc4ccc(N5CCN(C)CC5)cc4OC(C)C)nc32)c1 |  | > 1 µM |  | 0.078 µM |  |
| C=CC(=O)Nc1cccc(-n2c(=O)cc(CCC)c3cnc(Nc4ccc(N5CCN(C)CC5)cc4OC)nc32)c1 |  | 0.97 µM |  | 0.0178 µM |  |
| C=CC(=O)Nc1cccc(-n2c(=O)cc(C)c3cnc(Nc4ccc(N5CCN(C)CC5)cc4OCCC)nc32)c1 |  | 0.27 µM |  | 0.019 µM |  |
| C=CC(=O)Nc1cccc(-n2c(=O)cc(C(C)C)c3cnc(Nc4ccc(N5CCN(C)CC5)cc4OC)nc32)c1 |  | 0.098 µM |  | 0.094 µM |  |
| C=CC(=O)Nc1cccc(Oc2nc(Nc3ccc(N4CCN(C)CC4)cc3OC)ncc2Cl)c1 |  |  |  |  | inhibition [6]: Active; inhibition [7]: Active; inhibition [8]: Active |
| C=CC(=O)Nc1cccc(-n2c(=O)cc(C)c3c(C)nc(Nc4ccc(N5CCN(C)CC5)cc4OC)nc32)c1 |  | > 1 µM |  | 0.28 µM |  |
| C=CC(=O)Nc1cccc(-n2c(=O)cc(C(F)(F)F)c3cnc(Nc4ccc(N5CCN(C)CC5)cc4OC)nc32)c1 |  | > 1 µM |  | 0.039 µM |  |
| C=CC(=O)Nc1cccc(-n2c(=O)cc(C3CC3)c3cnc(Nc4ccc(N5CCN(C)CC5)cc4OC)nc32)c1 | 0.057 µM | 0.12 µM | 0.0022 µM | 0.01 µM |  |
| C=CC(=O)Nc1cccc(-n2c(=O)cc(C)c3cnc(Nc4ccc(N5CCN(C)CC5)cc4OC)nc32)c1 | 0.048 µM | 0.24 µM | 0.00026 µM | 0.0008 µM | Ratio IC50 [9]: 311; Selectivity ratio [10]: 185; inhibition [11]: Active; Ratio IC50 [12]: >1000; inhibition [13]: < 65%; Activity [14]: Non-toxic; inhibition (INH) [15]: Active; inhibition (INH) [16]: Active; inhibition [17]: 99.5%; Ratio IC50 [18]: >1000; Activity [19]: Non-toxic; Ratio IC50 [20]: >1000; IC50 [21]: 0.87 µM; Ratio IC50 [3]: 300; Activity [22]: Non-toxic; Ratio IC50 [23]: >1000; inhibition (INH) [24]: Active; IC50 [25]: 0.0028 µM |
| C=CC(=O)Nc1cccc(-n2c(=O)ccc3cnc(Nc4ccc(N5CCN(C)CC5)cc4OC)nc32)c1 | 0.014 µM | 0.015 µM | 0.00043 µM | 0.0005 µM | Selectivity ratio [10]: 32.5; Ratio IC50 [3]: 30 |
| C=CC(=O)Nc1cccc(-n2c(=O)c(-c3ccccc3)c(C)c3cnc(Nc4ccc(N5CCN(C)CC5)cc4OC)nc32)c1 | 0.0043 µM | 0.02 µM | 0.00091 µM | 0.0016 µM |  |
